According to patent publication US7863251B2, “Hepatic stellate cell specific promoter and uses thereof” (Agency for Science, Technology and Research, priority 2005, dated 2011):

B1: PDGF-BB: recombinant human PDGF-BB (BioVision), pro-proliferative factor (protein, UniProt P01127 82-190, looked up)
Platelet-derived growth …: SLGSLTIAEPAMIAECKTRTEVFEISRRLIDRTNANFLVWPPCVEVQRCSGCCNNRNVQCRPTQVQLRPVQVRKIEIVRKKPIFKKATVTLEDHLACKCETVAAARPVT

Columns and labels:
[1] = system: T6/lacZ/C1 cells (2.2 kb hGFAP-lacZ transgene); experiment: Quantitative solution assay of β-galactosidase activity in T6/lacZ/C1 cell extracts; assay type: cell-based, rat
Method: To quantify the β-galactosidase activity in cell extracts reported in FIGS. 4 to 10, an enzyme assay kit (E2000, Promega, Wis., USA) was used to measure the specific activity of β-galactosidase, according to the manufacturer's instructions in a 96-well format. Briefly, the cells were washed twice with 1×PBS buffer (pH7.4), lysed for 15 minutes at room temperature with the reporter lysis buffer, and harvested using a cell scraper. The total cell extracts were appropriately diluted (5-10 fold), and assayed for the enzyme activity. The specific β-galactosidase activity was expressed in milliunit per milliliter (mU/ml) using a standard curve established from the β-galactosidase standard (provided with the kit). The protein concentration was measured with a BCA protein assay kit (Pierce, Ill., USA), and used to further convert the specific β-galactosidase activity from mU/ml to mU/μg total cellular protein. Six independent experiments were performed for each time and concentration data point.
(§1) Cells were seeded into 12-well plates in full DMEM and 500 μg/ml Zeocin. Twelve hours prior to the cytokine treatment, medium was changed so that the cells were allowed to grow in low serum (0.5% FBS) DMEM. The cells at a confluence of 70-80% were incubated with various concentrations (0, 0.1, 1 and 10 […]) of recombinant human TGF-β1, PDGF-BB (BioVision, CA, USA) and 0, 0.1, 1 and 10 μg/ml lipopolysaccharide (LPS E. coli, Sigma) respectively for 0, 2, 8, 16, 24, 48 and 72 hours before they were harvested for β-galactosidase activity assay and real-time RT-PCR GFAP assay.
A β-galactosidase activity assay kit (Promega, Wis., USA) was used to measure transgene expression level in the T6/lacZ/C1 clone, using the nontransfected T6 as a negative basal control. When grown in the full DMEM medium to 70-80% confluence, the T6/lacZ/C1 cells yielded an average reading of approximately 0.5 mU/μg, about five times of that in normal T6 cells. The basal reading in the T6 cells was not influenced by the addition of cytokines or LPS (data not shown). For comparison purpose, the β-galactosidase activity in a randomly selected C6 clone containing the 2.2 kb hGFAP-lacZ transgene (designated as C6/lacZ/C4) was measured to have an activity of about 2 mU/μg, […] of that in the T6/lacZ/C1 cells. When incubated with TGF-β1 (0 to 10 ng/ml), the C6/lacZ/C4 cells yielded an induction dynamics of 130 to 200% of the untreated control.
To quantify specific transgene response to TGF-β1, we first set up an experiment to assess possible effects that serum concentration and culture duration may have on the transgene expression. T6/lacZ/C1 cells were initially grown in DMEM with high serum (10% FBS), and then some of the cells were starved with a DMEM with low serum (0.5% FBS) for 12 hours prior to the addition of TGF-β1 (1 ng/ml). After incubation for various times (0, 2, 8, 24, 48 and 72 hours), cells were harvested for β-galactosidase activity assay. […] After 72 hours, the level slipped to 58% of the value at 0 hour (P<0.001). The assay results were depicted in FIG. 8.
To further dissect the TGF-β1 contribution to the transgene induction, we treated T6/lacZ/C1 cells grown in low serum with various concentrations of TGF-β1 (0, 0.1, 1, 10 ng/ml) and assayed the enzymatic activity for three time points (24, 48 and 72 hours). The assay results were plotted in FIG. 9. […] When the non-treatment groups were normalized to 1 and the magnitude of induction were plotted for the 10 ng/ml treatment groups at all three time points (FIG. 10), a trend of increasing induction with time was apparent.

[2] = system: T6/lacZ/C1 cells (2.2 kb hGFAP-lacZ transgene); experiment: X-gal staining of T6/lacZ/C1 cells treated with TGF-β1, PDGF-BB and LPS; assay type: cell-based, rat; conditions: for X-gal blue staining (β-galactosidase) compared to the untreated: 0.1 to 10 ng/ml, 72 hours, X-gal one hour; for expression of a transgene operably coupled to a hGFAP promoter in HSC cell culture: summary statement
Method: A lacZ reporter assay kit for cell staining (InvivoGen, CA, USA) was used to detect the reporter gene activity in both stable and transient transfectants. Development of the blue end product was monitored at different time intervals (15, 30, 60, 90, and 120 minutes). The staining results were documented with a digital camera (DP12) attached to an Olympus inverted bright field microscope (IX51).
as §1
To determine possible induction of GFAP-lacZ expression by molecules with profibrotic and proinflammatory properties in activated HSC the T6/lacZ/C1 cells were treated with TGF-β1, PDGF-BB and LPS respectively at various concentrations (0, 0.1, 1 and 10 ng/ml) in the full DMEM medium for 72 hours. The cells were then stained with X-gal for one hour and photographed. […] In order to obtain truly quantitative data, a solution assay was employed to measure possible up-regulation of β-galactosidase activity by TGF-β1 in experiments below.

[3] = system: endogenous GFAP mRNA in T6/lacZ/C1 cells; experiment: Real-time RT-PCR for endogenous rat GFAP mRNA in T6/lacZ/C1 cells; assay type: cell-based; conditions: TGF-β1 1 ng/ml
Method: Total RNA was reverse transcribed to cDNA using Taqman's reverse transcription reagent (Cat. # N808-0234A total of […] of RNA in 7.7 μl nuclease-free water was added to 2 μl 10× reverse transcriptase buffer, 4.4 μl 25 mM magnesium chloride, 4 μl deoxyNTP mixtures, 1 μl random hexamers, 0.4 μl RNase inhibitor and 0.5 μl reverse transcriptase (50 U/μl) in a final reaction volume of 20 μl. The reaction was performed for 10 min at 25° C. (annealing), 30 min at 48° C. (cDNA synthesis) and 5 min at 95° C. (enzyme denaturation).
Real-time quantitative PCR was carried out with an ABI 7500 Real Time PCR System (Applied Biosystems, CA, USA). One microliter of sample cDNA was used in each PCR reaction, with the housekeeping β-actin gene as a reference for normalization. The primers and probes for rat β-actin and GFAP were purchased from Taqman's assay-on-demand database. The PCR reaction was performed under a default profile consisting of 50° C. for 2 min (UNG activation), 95° C. for 10 min (enzyme denaturation) and 40 cycles of amplification (denaturation 15 seconds, annealing and extension 60 seconds).
Relative quantitation of the target mRNA was calculated using the comparative threshold cycle (CT) methods as described in the User Bulletin #2 (ABI Prism 7700 Sequence Detection System). CT indicates the fractional cycle number at which the amount of amplified target reaches a fixed threshold within the linear phase of gene amplification. ΔCT, which reflects the difference between CT target and CT β-actin, is inversely correlated to the abundance of mRNA transcripts in the samples. ΔCT for each sample was normalized against control experiment or calibrator and expressed as ΔΔCT. Relative quantitation is given by 2^−ΔΔCT to express the up-regulation or down-regulation of the target gene under the treatments compared to the control.
It was known that GFAP, along with desmin, SMAA, and vimentin, was expressed in the clonal T6 cells (Vogel et al. (2000), J Lipid Res. 41(6):882). Naturally, the endogenous GFAP should be expressed in the T6/lacZ/C1 cells as well. In order to investigate how the endogenous GFAP expression is regulated by TGF-β1 in the T6/lacZ/C1 cells during different time course, we quantified rat GFAP mRNA level using a real-time RT-PCR method. Cells were similarly grown and treated with TGF-β1 (1 ng/ml) for various times (0, 2, 8, 16, 24, 48 and 72 hours), as described for the enzymatic assay experiments above. Total RNA was isolated from different cells and quantified as described in Materials and Methods, and the results were depicted in FIG. 11.

| Molecule | induction of β-galactosidase activity vs non-induced ([1]; 1 ng/ml TGF-β1, low serum, 24 hours (P<0.05)) | absolute enzymatic activity (β-galactosidase) ([1]; 10 ng/ml TGF-β1, 72 hours) [mU/μg] | fold induction of β-galactosidase specific activity, non-treatment normalized to 1 ([1]; 10 ng/ml TGF-β1, 72 hours) | induction of β-galactosidase activity vs non-induced ([1]; 10 ng/ml TGF-β1, low serum, 24, 48 and 72 hours (P<0.001)) | transgene expression level ([1]; TGF-β1 1 ng/ml, 0.5% FBS, 2 and 8 hours) | β-galactosidase specific activity at peak ([1]; TGF-β1 1 ng/ml, 0.5% FBS, 24 hour) [mU/μg] | transgene expression level ([1]; TGF-β1 1 ng/ml, 0.5% FBS, 48 hours) | transgene expression level, % of the value at 0 hour ([1]; TGF-β1 1 ng/ml, 0.5% FBS, 72 hours) [%] | X-gal blue staining (β-galactosidase) compared to the untreated [2] | expression of a transgene operably coupled to a hGFAP promoter in HSC cell culture [2] | GFAP mRNA level relative to basal level (normalized to 1) at 0 hour ([3]; 16 hour (P<0.005)) [fold] | GFAP mRNA level relative to basal level (normalized to 1) at 0 hour ([3]; 48 hours) [fold] | GFAP mRNA level relative to basal level (normalized to 1) at 0 hour ([3]; 72 hours) [fold] | GFAP mRNA level relative to basal level at 0 hour ([3]; first 24 hours) |
| --- | --- | --- | --- | --- | --- | --- | --- | --- | --- | --- | --- | --- | --- | --- |
| TGF-β1: recombinant human TGF-β1 (BioVision), pro-fibrotic factor | induction was seen | 0.43 | nearly two fold | Significant induction | rapidly elevated | 0.52 | dropped to the same level as at 0 hour | 58 | more intense blue staining | induced in a dose-dependent manner | 0.5 | 7 | 8.5 | remained steady |
| B1 |  |  |  |  |  |  |  |  | less pronounced response | induced in a dose-dependent manner |  |  |  |  |
